The experiment addresses IgE-Tb / sFcεRIα-Y131A-AF488 (Homo sapiens, UniProt P01854, N146Q/N252Q). Briefly: IgE-Tb / sFcεRIα-Y131A-AF488 FRET assay (protocol for examples 234 to 501). It is filed as binding. The settings on record: examples 234 to 501: compound with IgE-Tb 30 minutes before sFcεRIα-Y131A-AF488, incubated 18 hours at room temperature; read-out: Y131A FRET IC50 range. In a few lines: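 Read-out is the 520/490 nm emission ratio (337 nm excitation) after 18 h at room temperature, background subtracted, fitted four-parameter for IC50. Final reagents: 5 nM IgE-Tb, preincubated 30 min with compound (top typically 10 μM, 2% DMSO, 3-fold 10-point), plus 25 nM sFcεRIα-Y131A-AF488.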

Chain of IgE-Tb / sFcεRIα-Y131A-AF488 (P01854 whole entry N146Q/N252Q): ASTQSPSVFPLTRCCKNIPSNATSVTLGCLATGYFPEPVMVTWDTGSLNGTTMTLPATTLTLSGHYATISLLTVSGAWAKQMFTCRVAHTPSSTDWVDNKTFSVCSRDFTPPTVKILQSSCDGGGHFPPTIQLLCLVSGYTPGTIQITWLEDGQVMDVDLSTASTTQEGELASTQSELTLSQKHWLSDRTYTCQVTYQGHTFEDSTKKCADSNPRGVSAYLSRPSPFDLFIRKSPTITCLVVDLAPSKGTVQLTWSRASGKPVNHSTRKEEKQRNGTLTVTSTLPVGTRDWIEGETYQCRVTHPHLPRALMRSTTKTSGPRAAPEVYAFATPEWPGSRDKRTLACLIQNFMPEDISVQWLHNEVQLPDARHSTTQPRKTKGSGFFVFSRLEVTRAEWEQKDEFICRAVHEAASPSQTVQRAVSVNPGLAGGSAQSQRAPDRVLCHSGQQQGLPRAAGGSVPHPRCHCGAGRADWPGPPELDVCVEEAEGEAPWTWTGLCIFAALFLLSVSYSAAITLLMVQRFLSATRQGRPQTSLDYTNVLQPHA

As to `Cn1nc(C(F)F)cc1Nc1nncn1[C@H]1CCc2sc(NC(=O)C3CC3)c(C(=O)N[C@H]3C[C@H](F)C3)c2C1` [Example 373, (5S)-2-(cyclopropanecarbonylamino)-5-[3-[[5-(difluoromethyl)-2-methylpyrazol-3-yl]amino]-1,2,4-triazol-4-yl]-N-(trans-3-fluorocyclobutyl)-4,5,6,7-tetrahydro-1-benzothiophene-3-carboxamide], the IC50 is below 1000 nM.
In the case of `Cn1nc(OC(F)F)cc1Nc1nncn1[C@H]1CCc2sc(NC(=O)[C@H]3C[C@@H]3F)c(C(=O)NC[C@H]3C[C@H]3F)c2C1` [Example 380, (5S)-5-[3-[[5-(difluoromethoxy)-2-methylpyrazol-3-yl]amino]-1,2,4-triazol-4-yl]-2-[[(1R,2S)-2-fluorocyclopropanecarbonyl]amino]-N-[[(1R,2R)-2-fluorocyclopropyl]methyl]-4,5,6,7-tetrahydro-1-benzothiophene-3-carboxamide], the IC50 was below 1000 nM.
Turning to `Cn1nc(C(F)F)cc1Nc1nncn1[C@H]1CCc2sc(NC(=O)C3CC3)c(C(=O)NC3CC(F)(F)C3)c2C1` [Example 387, (5S)-2-(cyclopropanecarbonylamino)-N-(3,3-difluorocyclobutyl)-5-[3-[[5-(difluoromethyl)-2-methylpyrazol-3-yl]amino]-1,2,4-triazol-4-yl]-4,5,6,7-tetrahydro-1-benzothiophene-3-carboxamide], the IC50 was below 1000 nM.
With `Cn1nc(C(F)F)cc1Nc1nncn1[C@H]1CCc2sc(NC(=O)C3CC3)c(C(=O)N[C@H]3C[C@@H](F)C3)c2C1` [Example 388, (5S)-2-(cyclopropanecarbonylamino)-5-[3-[[5-(difluoromethyl)-2-methylpyrazol-3-yl]amino]-1,2,4-triazol-4-yl]-N-(cis-3-fluorocyclobutyl)-4,5,6,7-tetrahydro-1-benzothiophene-3-carboxamide], the 50% inhibitory concentration (IC50) was below 1000 nM.
On to `Cn1nc(C(F)F)cc1Nc1nncn1[C@H]1CCc2sc(NC(=O)C3CC3)c(C(=O)NCC3CC(F)(F)C3)c2C1` [Example 389, (5S)-2-(cyclopropanecarbonylamino)-N-[(3,3-difluorocyclobutyl)methyl]-5-[3-[[5-(difluoromethyl)-2-methylpyrazol-3-yl]amino]-1,2,4-triazol-4-yl]-4,5,6,7-tetrahydro-1-benzothiophene-3-carboxamide], for which the IC50 was below 1000 nM.
Under `CC1CC1CNC(=O)c1c(NC(=O)C2CC2F)sc2c1CC(n1cnnc1Nc1cc(C(F)(F)F)nn1C)CC2` [Example 390, (5S)-2-[[(1R,2R)-2-fluorocyclopropanecarbonyl]amino]-N-[[1RS,2RS)-2-methylcyclopropyl]methyl]-5-[3-[[2-methyl-5-(trifluoromethyl)pyrazol-3-yl]amino]-1,2,4-triazol-4-yl]-4,5,6,7-tetrahydro-1-benzothiophene-3-carboxamide (cis)] stands below 1000 nM; under `Cn1nc(C(F)(F)F)cc1Nc1nncn1[C@H]1CCc2sc(NC(=O)[C@H]3C[C@H]3F)c(C(=O)NC[C@@H]3C[C@@H]3F)c2C1` [Example 392, (5S)-2-[[(1R,2R)-2-fluorocyclopropanecarbonyl]amino]-N-[[(1S,2S)-2-fluorocyclopropyl]methyl]-5-[3-[[2-methyl-5-(trifluoromethyl)pyrazol-3-yl]amino]-1,2,4-triazol-4-yl]-4,5,6,7-tetrahydro-1-benzothiophene-3-carboxamide], below 1000 nM.
As to `Cn1nc(C(F)(F)F)cc1Nc1nncn1[C@H]1CCc2sc(NC(=O)[C@H]3C[C@H]3F)c(C(=O)NC[C@H]3C[C@@H]3F)c2C1` [Example 395, (5S)-2-[[(1R,2R)-2-fluorocyclopropanecarbonyl]amino]-N-[[(1R,2S)-2-fluorocyclopropyl]methyl]-5-[3-[[2-methyl-5-(trifluoromethyl)pyrazol-3-yl]amino]-1,2,4-triazol-4-yl]-4,5,6,7-tetrahydro-1-benzothiophene-3-carboxamide], the IC50 was below 1000 nM.

Broadly, the IC50 is the concentration at which inhibition is half-maximal.

Source of the values: patent publication US12018021B2 (UCB Biopharma SRL, priority 2018, dated 2024).
